Test results published in ChEMBL document CHEMBL1152844, “Synthesis and anti-HIV studies of 2- and 3-adamantyl-substituted thiazolidin-4-ones” (Eur J Med Chem, 2009).
The source made the active and inactive calls. The rule behind the calls is not given here.

How the values were obtained:
[1] = test system: Human immunodeficiency virus 2; experiment: Antiviral activity against HIV2 ROD infected in human CEM cells assessed as inhibition of virus-induced cytopathicity after 4 days; type: functional, organism-based; conditions: Human immunodeficiency virus 2, ROD, CCRF-CEM, 96 h
[2] = test system: CCRF-CEM; experiment: Cytotoxicity against HIV-infected human CEM cells; type: cell-based; conditions: ccrf-cem
[3] = test system: Human immunodeficiency virus 1; experiment: Antiviral activity against HIV1 3B infected in human CEM cells assessed as inhibition of virus-induced cytopathicity after 4 days; type: functional, organism-based; conditions: Human immunodeficiency virus 1, 3B, CCRF-CEM, 96 h
[4] = Selectivity index, ratio of CC50 for human CEM cells to EC50 for HIV1 3B; type: toxicity, cell-based, CCRF-CEM; conditions: read-out: Ratio CC50/EC50
[5] = test system: Human respirovirus 3; experiment: Antiviral activity against Parainfluenza virus type 3 infected in african green monkey Vero cells; type: functional, organism-based
[6] = test system: Vesicular stomatitis virus; experiment: Antiviral activity against Vesicular stomatitis virus infected in HEL cells; type: functional, organism-based
[7] = test system: Influenza B virus; experiment: Antiviral activity against Influenza virus type B infected in MDCK cells; type: functional, organism-based
[8] = test system: Vesicular stomatitis virus; experiment: Antiviral activity against Vesicular stomatitis virus infected in human HeLa cells; type: functional, organism-based
[9] = test system: Coxsackievirus B4; experiment: Antiviral activity against Coxsackievirus B4 infected in human HeLa cells; type: functional, organism-based
[10] = test system: Respiratory syncytial virus; experiment: Antiviral activity against Respiratory syncytial virus infected in human HeLa cells; type: functional, organism-based
[11] = test system: Mammalian orthoreovirus 1; experiment: Antiviral activity against Reovirus 1 infected in african green monkey Vero cells; type: functional, organism-based
[12] = test system: Human alphaherpesvirus 2; experiment: Antiviral activity against Herpes simplex virus type 2 infected in HEL cells; type: functional, organism-based
[13] = test system: Influenza A virus; experiment: Antiviral activity against Influenza virus type A H1N1 infected in MDCK cells; type: functional, organism-based
[14] = test system: Sindbis virus; experiment: Antiviral activity against Sindbis virus infected in african green monkey Vero cells; type: functional, organism-based
[15] = test system: Influenza A virus; experiment: Antiviral activity against Influenza virus type A H3N2 infected in MDCK cells; type: functional, organism-based
[16] = test system: Coxsackievirus B4; experiment: Antiviral activity against Coxsackievirus B4 infected in african green monkey Vero cells; type: functional, organism-based
[17] = test system: Human alphaherpesvirus 1; experiment: Antiviral activity against Herpes simplex virus type 1 infected in HEL cells; type: functional, organism-based
[18] = test system: Punta Toro virus; experiment: Antiviral activity against Punta Toro virus infected in african green monkey Vero cells; type: functional, organism-based
[19] = test system: Feline coronavirus; experiment: Antiviral activity against Feline coronavirus infected in crandel feline kidney cells; type: functional, organism-based
[20] = test system: Vaccinia virus; experiment: Antiviral activity against Vaccinia virus infected in HEL cells; type: functional, organism-based; conditions: Orthopoxvirus vaccinia

Structure (SMILES)	EC50 [1]	CC50 [2]	EC50 [3]	selectivity ratio [4]	Activity [5]	Activity [6]	Activity [7]	Activity [8]	Activity [9]	Activity [10]	Activity [11]	Activity [12]	Activity [13]	Activity [14]	Activity [15]	Activity [16]	Activity [17]	Activity [18]	Activity [19]	Activity [20]
Cc1ccnc2c1NC(=O)c1cccnc1N2C1CC1 [NEVIRAPINE]	> 50 µM	> 50 µM	–	–	–	–	–	–	–	–	–	–	–	–	–	–	–	–	–	–
CN(C)CCN1C(=O)CSC1CC12CC3CC(CC(C3)C1)C2 (centres undefined)	≥ 62 µM	77 µM	53 µM	< 1.4	inactive	inactive	inactive	inactive	inactive	inactive	inactive	inactive	inactive	inactive	inactive	inactive	inactive	inactive	inactive	inactive
Cc1cc(C)nc(N2C(=O)CSC2CC23CC4CC(CC(C4)C2)C3)c1 (centres undefined)	≥ 54 µM	115 µM	> 54 µM	< 2	inactive	inactive	inactive	inactive	inactive	inactive	inactive	inactive	inactive	inactive	inactive	inactive	inactive	inactive	inactive	inactive
COc1cc(C2SCC(=O)N2CC23CC4CC(CC(C4)C2)C3)cc(OC)c1OC (centres undefined)	≥ 10.9 µM	18 µM	≥ 10.9 µM	< 1.6	inactive	inactive	inactive	inactive	inactive	inactive	inactive	inactive	inactive	inactive	inactive	inactive	inactive	inactive	inactive	inactive
Cc1cc(Cl)nc(N2C(=O)CSC2C23CC4CC(CC(C4)C2)C3)n1 (centres undefined)	120 µM	> 275 µM	≥ 54.9 µM	< 5	inactive	inactive	inactive	inactive	inactive	inactive	inactive	inactive	inactive	inactive	inactive	inactive	inactive	inactive	inactive	inactive
Cc1cc(C)nc(N2C(=O)CSC2C23CC4CC(CC(C4)C2)C3)n1 (centres undefined)	≥ 58 µM	122 µM	0.67 µM	182	inactive	inactive	inactive	inactive	inactive	inactive	inactive	inactive	inactive	inactive	inactive	inactive	inactive	inactive	inactive	inactive
Cc1ccnc(N2C(=O)CSC2CC23CC4CC(CC(C4)C2)C3)n1 (centres undefined)	23.5 µM	27.3 µM	≥ 11.6 µM	< 2.3	inactive	inactive	inactive	inactive	inactive	inactive	inactive	inactive	inactive	inactive	inactive	inactive	inactive	inactive	inactive	inactive
Cc1cc(N2C(=O)CSC2CC23CC4CC(CC(C4)C2)C3)nc(C)n1 (centres undefined)	≥ 11.2 µM	22.1 µM	≥ 11.2 µM	< 1.9	inactive	inactive	inactive	inactive	inactive	inactive	inactive	inactive	inactive	inactive	inactive	inactive	inactive	inactive	inactive	inactive
Cc1ccnc(N2C(=O)CSC2C23CC4CC(CC(C4)C2)C3)n1 (centres undefined)	> 60.7 µM	136 µM	4.5 µM	30	inactive	inactive	inactive	inactive	inactive	inactive	inactive	inactive	inactive	inactive	inactive	inactive	inactive	inactive	inactive	inactive
O=C1CSC(CC23CC4CC(CC(C4)C2)C3)N1CCN1CCCC1 (centres undefined)	≥ 57 µM	77 µM	48.7 µM	1.6	inactive	inactive	inactive	inactive	inactive	inactive	inactive	inactive	inactive	inactive	inactive	inactive	inactive	inactive	inactive	inactive
COc1cc(C2SCC(=O)N2CCC23CC4CC(CC(C4)C2)C3)cc(OC)c1OC (centres undefined)	6.5 µM	11.3 µM	7.8 µM	1.4	inactive	inactive	inactive	inactive	inactive	inactive	inactive	inactive	inactive	inactive	inactive	inactive	inactive	inactive	inactive	inactive
O=c1[nH]cnc2c1ncn2[C@H]1CC[C@@H](CO)O1 [DIDANOSINE]	–	> 250 µM	–	> 54	–	–	–	–	–	–	–	–	–	–	–	–	–	–	–	–
